Measurements published in US20080009418A1, “Selective Inhibitors” (Alchemia LTD., priority 2004, published 2008).

Columns and labels:
Human δ-opioid (DOP) = target: T1, Human δ-opioid (DOP) (Homo sapiens, UniProt P41143); assay: Radioligand binding, human δ-opioid (DOP) membranes, FlashPlate, [3H]-Bremazocine; conditions: compound at 10 μM; for A1 radioligand binding inhibition: human δ-opioid (DOP) membranes; for A1 radioligand binding, percentage inhibition: [3H]-Bremazocine
T1 construct: purchased Perkin Elmer Biosignal
Procedure, shortened: (§1)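 Cloned human receptor membranes were coated onto FlashPlate wells and incubated with radioligand and compound (added from a 0.5 mM DMSO daughter plate) for 1 hour at room temperature in the dark. Scintillation counting gave percent inhibition, with DMSO defining total and reference ligand defining non-specific binding.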

Human κ-Opioid (KOP) = target: T2, Human κ-Opioid (KOP) (Homo sapiens, UniProt P41145); assay: Radioligand binding, human κ-opioid (KOP) membranes, filtration, [3H]-Diprenorphine; conditions: compound at 10 μM; for A2 radioligand binding inhibition: human κ-opioid (KOP) membranes; for A2 radioligand binding, percentage inhibition: [3H]-Diprenorphine
T2 construct: purchased Perkin Elmer Biosignal
Procedure, shortened: (§2)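 Percent inhibition of radioligand binding measured on recombinant human membranes: NK1 with [125I]-Substance P, KOP with [3H]-Diprenorphine. Incubation 1 h at room temperature, then harvest onto 0.3% PEI-soaked filters, cold Tris-HCl pH 7.4 washes and scintillation counting; non-specific binding from reference ligand wells.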

Human Melanocortin (MC3) = target: T3, Human Melanocortin (MC3) (Homo sapiens, UniProt P41968); assay: Radioligand binding, human melanocortin MC3 membranes, FlashPlate, [125I]-NDP-αMSH; conditions: compound at 10 μM; for A3 radioligand binding inhibition: human melanocortin MC3 membranes; for A3 radioligand binding, percentage inhibition: [125I]-NDP-αMSH
T3 construct: purchased Perkin Elmer Biosignal
Procedure, shortened: as §1

Human Melanocortin (MC4) = target: T4, Human Melanocortin (MC4) (Homo sapiens, UniProt P32245); assay: Radioligand binding, human melanocortin MC4 membranes, FlashPlate, [125I]-NDP-αMSH; conditions: compound at 10 μM; for A4 radioligand binding inhibition: human melanocortin MC4 membranes; for A4 radioligand binding, percentage inhibition: [125I]-NDP-αMSH
T4 construct: purchased Perkin Elmer Biosignal
Procedure, shortened: as §1

Human melanocortin (MC5) = target: T5, Human melanocortin (MC5) (Homo sapiens, UniProt P33032); assay: Radioligand binding, human melanocortin MC5 membranes, FlashPlate, [125I]-NDP-αMSH; conditions: compound at 10 μM; for A5 radioligand binding inhibition: human melanocortin MC5 membranes; for A5 radioligand binding, percentage inhibition: [125I]-NDP-αMSH
T5 construct: purchased Perkin Elmer Biosignal
Procedure, shortened: as §1

[1] = target: T6, Human melanin-concentrating hormone (MCH1) (Homo sapiens, UniProt Q99705); assay: Radioligand binding, human melanin-concentrating hormone MCH1 membranes, FlashPlate, [125I]-S36057; conditions: compound at 10 μM; for A6 radioligand binding inhibition: human MCH1 membranes; for A6 radioligand binding, percentage inhibition: [125I]-S36057
T6 construct: purchased Perkin Elmer Biosignal
Procedure, shortened: as §1

Human μ-opioid (MOP) = target: T7, Human μ-opioid (MOP) (Homo sapiens, UniProt P35372); assay: Radioligand binding, human μ-opioid (MOP) membranes, FlashPlate, [3H]-Naloxone; conditions: compound at 10 μM; for A7 radioligand binding inhibition: human μ-opioid (MOP) membranes; for A7 radioligand binding, percentage inhibition: [3H]-Naloxone
T7 construct: purchased Perkin Elmer Biosignal
Procedure, shortened: as §1

Human neurokinin (NK1) = target: T8, Human neurokinin (NK1) (Homo sapiens, UniProt P25103); assay: Radioligand binding, human neurokinin NK1 membranes, filtration, [125I]-Substance P; conditions: compound at 10 μM; for A8 radioligand binding inhibition: human neurokinin NK1 membranes; for A8 radioligand binding, percentage inhibition: [125I]-Substance P
T8 construct: purchased Perkin Elmer Biosignal
Procedure, shortened: as §2

[2] = target: T9, Human neuropeptide Y (NPY-Y1) (Homo sapiens, UniProt P25929); assay: Radioligand binding, human neuropeptide Y NPY-Y1 membranes, FlashPlate, [125I]-PYY; conditions: compound at 10 μM; for A9 radioligand binding inhibition: human NPY-Y1 membranes; for A9 radioligand binding, percentage inhibition: [125I]-PYY
T9 construct: purchased Perkin Elmer Biosignal
T9 sequence (P25929 1-384): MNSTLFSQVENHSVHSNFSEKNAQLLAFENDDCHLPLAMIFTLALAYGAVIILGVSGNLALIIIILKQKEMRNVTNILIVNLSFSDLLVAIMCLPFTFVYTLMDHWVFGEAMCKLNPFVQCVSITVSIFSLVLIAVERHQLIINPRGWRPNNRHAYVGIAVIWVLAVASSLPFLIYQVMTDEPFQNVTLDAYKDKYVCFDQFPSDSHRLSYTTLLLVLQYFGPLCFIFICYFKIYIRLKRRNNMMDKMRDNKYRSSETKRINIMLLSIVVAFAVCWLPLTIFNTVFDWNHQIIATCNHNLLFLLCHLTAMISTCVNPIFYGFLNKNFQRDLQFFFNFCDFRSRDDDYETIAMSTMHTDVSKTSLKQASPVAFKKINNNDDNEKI
Procedure, shortened: as §1

Human opioid (ORL1) = target: T10, Human opioid (ORL1) (Homo sapiens, UniProt P41146); assay: Radioligand binding, human opioid ORL1 membranes, FlashPlate, [125I]-Nociceptin; conditions: compound at 10 μM; for A10 radioligand binding inhibition: human ORL1 membranes; for A10 radioligand binding, percentage inhibition: [125I]-Nociceptin
T10 construct: purchased Perkin Elmer Biosignal
Procedure, shortened: as §1

Mouse urotensin (mUR2) = target: T11, Mouse urotensin (mUR2) (Mus musculus, UniProt Q8VIH9); assay: Radioligand binding, mouse urotensin mUR2 membranes, FlashPlate, [125I]-Urotensin II; conditions: compound at 10 μM; for A11 radioligand binding inhibition: mouse urotensin mUR2 membranes; for A11 radioligand binding, percentage inhibition: [125I]-Urotensin II
T11 construct: purchased Perkin Elmer Biosignal
T11 sequence (Q8VIH9 1-385): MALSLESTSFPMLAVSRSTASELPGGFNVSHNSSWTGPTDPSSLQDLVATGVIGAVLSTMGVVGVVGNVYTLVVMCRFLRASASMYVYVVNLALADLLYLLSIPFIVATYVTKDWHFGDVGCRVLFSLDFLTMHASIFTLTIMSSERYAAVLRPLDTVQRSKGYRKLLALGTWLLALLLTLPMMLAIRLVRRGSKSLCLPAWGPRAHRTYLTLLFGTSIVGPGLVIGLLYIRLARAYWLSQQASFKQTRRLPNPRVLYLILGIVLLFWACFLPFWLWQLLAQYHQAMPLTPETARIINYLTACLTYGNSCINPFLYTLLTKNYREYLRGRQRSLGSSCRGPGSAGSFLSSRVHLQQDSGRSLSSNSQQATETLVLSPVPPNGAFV
Procedure, shortened: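 Cloned mouse urotensin (mUR2) receptor membranes from Perkin Elmer Biosignal were immobilized in FlashPlate microplates using a proprietary coating. Each well got 19.5 μl buffer, then 0.5 μl of DMSO, reference ligand, or compound. Adding 5 μl of [125I]-Urotensin II, diluted to 5× final concentration in binding buffer, started binding. Plates were sealed with TopSeal-A and incubated 1 hour at room temperature in the dark. Wells were counted for 30 seconds each on a TopCount after a 60-second delay, and percentage inhibition was calculated.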

T5 sequence (P33032 whole entry): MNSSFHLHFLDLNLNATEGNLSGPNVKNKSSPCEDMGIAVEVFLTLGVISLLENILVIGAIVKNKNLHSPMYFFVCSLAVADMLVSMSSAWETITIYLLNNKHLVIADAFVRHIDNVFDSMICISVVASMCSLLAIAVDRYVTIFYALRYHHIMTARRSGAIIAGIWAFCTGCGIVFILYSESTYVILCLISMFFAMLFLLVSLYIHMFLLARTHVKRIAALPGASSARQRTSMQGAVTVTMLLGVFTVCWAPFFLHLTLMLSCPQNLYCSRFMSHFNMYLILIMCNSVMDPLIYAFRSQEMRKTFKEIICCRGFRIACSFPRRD
T1 sequence (P41143 whole entry): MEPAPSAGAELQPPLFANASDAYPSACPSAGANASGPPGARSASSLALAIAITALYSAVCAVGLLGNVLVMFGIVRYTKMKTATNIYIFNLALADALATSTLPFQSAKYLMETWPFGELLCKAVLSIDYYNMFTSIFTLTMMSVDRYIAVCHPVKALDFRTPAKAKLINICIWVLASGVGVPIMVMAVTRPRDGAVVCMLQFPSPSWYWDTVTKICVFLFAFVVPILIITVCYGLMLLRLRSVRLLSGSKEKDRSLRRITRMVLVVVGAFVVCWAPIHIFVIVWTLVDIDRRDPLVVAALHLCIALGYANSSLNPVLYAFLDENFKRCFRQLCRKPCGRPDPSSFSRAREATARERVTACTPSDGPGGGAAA
T4 sequence (P32245 whole entry): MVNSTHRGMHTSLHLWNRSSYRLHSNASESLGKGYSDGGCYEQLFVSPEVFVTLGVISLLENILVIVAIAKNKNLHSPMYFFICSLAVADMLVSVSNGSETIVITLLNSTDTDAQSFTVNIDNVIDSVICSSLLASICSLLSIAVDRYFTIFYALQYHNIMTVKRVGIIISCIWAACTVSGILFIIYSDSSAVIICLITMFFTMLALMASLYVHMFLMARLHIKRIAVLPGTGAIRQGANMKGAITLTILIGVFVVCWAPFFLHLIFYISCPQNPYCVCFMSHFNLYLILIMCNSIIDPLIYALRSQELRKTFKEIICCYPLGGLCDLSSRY
T10 sequence (P41146 whole entry): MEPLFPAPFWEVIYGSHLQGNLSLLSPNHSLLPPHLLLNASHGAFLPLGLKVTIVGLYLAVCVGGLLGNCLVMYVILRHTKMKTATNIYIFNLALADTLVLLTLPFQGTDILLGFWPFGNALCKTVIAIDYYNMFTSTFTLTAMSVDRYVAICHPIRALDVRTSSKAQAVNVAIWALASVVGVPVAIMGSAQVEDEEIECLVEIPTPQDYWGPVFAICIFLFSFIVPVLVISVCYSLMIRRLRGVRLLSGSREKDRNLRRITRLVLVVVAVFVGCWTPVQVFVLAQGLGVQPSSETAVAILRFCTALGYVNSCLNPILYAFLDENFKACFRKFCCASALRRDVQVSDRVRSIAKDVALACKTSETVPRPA
T7 sequence (P35372 whole entry): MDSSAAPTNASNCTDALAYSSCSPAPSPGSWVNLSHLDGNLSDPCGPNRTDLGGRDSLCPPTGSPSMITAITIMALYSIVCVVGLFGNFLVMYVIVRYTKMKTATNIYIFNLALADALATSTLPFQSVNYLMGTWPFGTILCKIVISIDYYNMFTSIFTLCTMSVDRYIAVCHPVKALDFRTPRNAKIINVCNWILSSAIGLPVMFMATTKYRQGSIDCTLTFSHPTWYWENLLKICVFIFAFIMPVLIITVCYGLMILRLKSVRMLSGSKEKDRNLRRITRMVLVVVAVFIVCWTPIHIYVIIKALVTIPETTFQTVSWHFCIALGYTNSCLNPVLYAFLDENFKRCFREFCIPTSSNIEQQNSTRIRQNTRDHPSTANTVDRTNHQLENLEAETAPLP
T3 sequence (P41968 whole entry): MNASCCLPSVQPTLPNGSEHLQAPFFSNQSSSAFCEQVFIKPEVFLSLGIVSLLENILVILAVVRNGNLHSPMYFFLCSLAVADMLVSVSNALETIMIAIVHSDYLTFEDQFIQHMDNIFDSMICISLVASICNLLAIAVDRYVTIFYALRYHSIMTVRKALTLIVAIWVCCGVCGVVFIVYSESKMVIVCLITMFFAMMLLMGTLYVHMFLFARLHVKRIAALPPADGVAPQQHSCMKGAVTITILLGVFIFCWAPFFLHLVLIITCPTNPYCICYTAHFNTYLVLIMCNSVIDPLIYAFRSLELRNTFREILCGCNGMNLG
T8 sequence (P25103 whole entry): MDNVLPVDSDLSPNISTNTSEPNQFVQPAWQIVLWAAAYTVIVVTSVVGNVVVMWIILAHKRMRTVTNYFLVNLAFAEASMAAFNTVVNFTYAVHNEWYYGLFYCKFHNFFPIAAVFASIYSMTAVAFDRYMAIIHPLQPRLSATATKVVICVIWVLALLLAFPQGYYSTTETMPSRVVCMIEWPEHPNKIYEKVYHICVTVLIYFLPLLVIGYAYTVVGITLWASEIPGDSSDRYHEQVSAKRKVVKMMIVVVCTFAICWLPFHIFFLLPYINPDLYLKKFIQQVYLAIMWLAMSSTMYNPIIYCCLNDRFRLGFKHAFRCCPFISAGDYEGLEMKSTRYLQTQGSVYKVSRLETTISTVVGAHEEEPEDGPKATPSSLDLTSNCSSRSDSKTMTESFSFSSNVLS
T6 sequence (Q99705 whole entry): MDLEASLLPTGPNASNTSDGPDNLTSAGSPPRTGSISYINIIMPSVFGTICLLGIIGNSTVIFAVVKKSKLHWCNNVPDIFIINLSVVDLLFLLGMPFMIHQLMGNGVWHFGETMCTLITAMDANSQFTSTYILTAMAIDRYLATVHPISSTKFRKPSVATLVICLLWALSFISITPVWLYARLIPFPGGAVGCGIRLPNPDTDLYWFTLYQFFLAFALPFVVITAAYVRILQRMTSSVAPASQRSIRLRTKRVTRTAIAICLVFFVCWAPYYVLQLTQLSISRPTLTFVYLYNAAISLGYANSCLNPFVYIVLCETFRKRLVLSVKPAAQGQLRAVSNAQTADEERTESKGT
T2 sequence (P41145 whole entry): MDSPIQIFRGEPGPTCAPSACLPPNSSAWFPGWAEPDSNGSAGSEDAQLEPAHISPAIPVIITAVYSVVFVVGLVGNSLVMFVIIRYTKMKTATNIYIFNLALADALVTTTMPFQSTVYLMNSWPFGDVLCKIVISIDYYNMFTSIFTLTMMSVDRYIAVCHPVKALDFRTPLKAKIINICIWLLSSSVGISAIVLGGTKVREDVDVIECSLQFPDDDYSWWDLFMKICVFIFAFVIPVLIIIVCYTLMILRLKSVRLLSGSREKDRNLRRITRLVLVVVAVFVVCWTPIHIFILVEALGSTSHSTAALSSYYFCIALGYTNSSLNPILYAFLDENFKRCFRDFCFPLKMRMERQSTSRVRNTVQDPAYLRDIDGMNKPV

Compound	A1 radioligand binding inhibition (Human δ-opioid (DOP))	A2 radioligand binding inhibition (Human κ-Opioid (KOP))	A3 radioligand binding inhibition (Human Melanocortin (MC3))	A4 radioligand binding inhibition (Human Melanocortin (MC4))	A5 radioligand binding inhibition (Human melanocortin (MC5))	A6 radioligand binding inhibition [1]	A7 radioligand binding inhibition (Human μ-opioid (MOP))	A8 radioligand binding inhibition (Human neurokinin (NK1))	A9 radioligand binding inhibition [2]	A10 radioligand binding inhibition (Human opioid (ORL1))	A11 radioligand binding inhibition (Mouse urotensin (mUR2))	A1 radioligand binding, percentage inhibition (Human δ-opioid (DOP))	A2 radioligand binding, percentage inhibition (Human κ-Opioid (KOP))	A3 radioligand binding, percentage inhibition (Human Melanocortin (MC3))	A4 radioligand binding, percentage inhibition (Human Melanocortin (MC4))	A5 radioligand binding, percentage inhibition (Human melanocortin (MC5))	A6 radioligand binding, percentage inhibition [1]	A7 radioligand binding, percentage inhibition (Human μ-opioid (MOP))	A8 radioligand binding, percentage inhibition (Human neurokinin (NK1))	A9 radioligand binding, percentage inhibition [2]	further results
CO[C@H]1[C@H](O)[C@@H](COCc2ccc(Cl)cc2)OC(OCc2ccc(-c3ccccc3)cc2)[C@@H]1NC(=O)CCCNC(=N)N (stereo partly shown) [compound 65]	− (“−” indicates less than 50% inhibition at 10 μM)	− (“−” indicates less than 50% inhibition at 10 μM)	+ (“+” indicates greater than 50% inhibition at 10 μM)	+ (“+” indicates greater than 50% inhibition at 10 μM)	+ (“+” indicates greater than 50% inhibition at 10 μM)	− (“−” indicates less than 50% inhibition at 10 μM)	+ (“+” indicates greater than 50% inhibition at 10 μM)	+ (“+” indicates greater than 50% inhibition at 10 μM)	− (“−” indicates less than 50% inhibition at 10 μM)	− (“−” indicates less than 50% inhibition at 10 μM)	− (“−” indicates less than 50% inhibition at 10 μM)	–	–	–	–	–	–	–	–	–	–
CO[C@H]1[C@H](O)[C@@H](COCc2ccc(-c3ccccc3)cc2)OC(OCc2ccc(Cl)cc2)[C@@H]1NC(=O)CCNC(=N)N (stereo partly shown) [compound 94]	–	–	–	–	–	–	–	–	–	–	–	− (“−” indicates less than 50% inhibition at 10 μM)	− (“−” indicates less than 50% inhibition at 10 μM)	+ (“+” indicates greater than 50% inhibition at 10 μM)	+ (“+” indicates greater than 50% inhibition at 10 μM)	+ (“+” indicates greater than 50% inhibition at 10 μM)	+ (“+” indicates greater than 50% inhibition at 10 μM)	− (“−” indicates less than 50% inhibition at 10 μM)	+ (“+” indicates greater than 50% inhibition at 10 μM)	+ (“+” indicates greater than 50% inhibition at 10 μM)	A10 radioligand binding, percentage inhibition (Human opioid (ORL1)): + (“+” indicates greater than 50% inhibition at 10 μM); A11 radioligand binding, percentage inhibition (Mouse urotensin (mUR2)): − (“−” indicates less than 50% inhibition at 10 μM)
CO[C@H]1[C@H](O)[C@@H](COCc2ccccc2)OC(OCCNC(=N)N)[C@@H]1NC(=O)c1c[nH]c2ccccc12 (stereo partly shown) [compound 125]	–	–	–	–	–	–	–	–	–	–	–	− (“−” indicates less than 50% inhibition at 10 μM)	− (“−” indicates less than 50% inhibition at 10 μM)	− (“−” indicates less than 50% inhibition at 10 μM)	− (“−” indicates less than 50% inhibition at 10 μM)	− (“−” indicates less than 50% inhibition at 10 μM)	− (“−” indicates less than 50% inhibition at 10 μM)	− (“−” indicates less than 50% inhibition at 10 μM)	+ (“+” indicates greater than 50% inhibition at 10 μM)	− (“−” indicates less than 50% inhibition at 10 μM)	A10 radioligand binding, percentage inhibition (Human opioid (ORL1)): − (“−” indicates less than 50% inhibition at 10 μM); A11 radioligand binding, percentage inhibition (Mouse urotensin (mUR2)): − (“−” indicates less than 50% inhibition at 10 μM)
COC[C@H]1OC(OCc2ccc3ccccc3c2)[C@H](NC(=O)CNC(=N)N)[C@@H](OCc2ccc(Cl)cc2)[C@@H]1O (stereo partly shown) [compound 22]	− (“−” indicates less than 50% inhibition at 10 μM)	− (“−” indicates less than 50% inhibition at 10 μM)	− (“−” indicates less than 50% inhibition at 10 μM)	− (“−” indicates less than 50% inhibition at 10 μM)	+ (“+” indicates greater than 50% inhibition at 10 μM)	− (“−” indicates less than 50% inhibition at 10 μM)	− (“−” indicates less than 50% inhibition at 10 μM)	− (“−” indicates less than 50% inhibition at 10 μM)	− (“−” indicates less than 50% inhibition at 10 μM)	− (“−” indicates less than 50% inhibition at 10 μM)	− (“−” indicates less than 50% inhibition at 10 μM)	–	–	–	–	–	–	–	–	–	–
CO[C@H]1[C@H](O)[C@@H](COCc2ccc3ccccc3c2)OC(OCc2ccc3ccccc3c2)[C@@H]1NC(=O)CCCN (stereo partly shown) [compound 72]	− (“−” indicates less than 50% inhibition at 10 μM)	− (“−” indicates less than 50% inhibition at 10 μM)	− (“−” indicates less than 50% inhibition at 10 μM)	+ (“+” indicates greater than 50% inhibition at 10 μM)	+ (“+” indicates greater than 50% inhibition at 10 μM)	− (“−” indicates less than 50% inhibition at 10 μM)	− (“−” indicates less than 50% inhibition at 10 μM)	+ (“+” indicates greater than 50% inhibition at 10 μM)	− (“−” indicates less than 50% inhibition at 10 μM)	− (“−” indicates less than 50% inhibition at 10 μM)	− (“−” indicates less than 50% inhibition at 10 μM)	–	–	–	–	–	–	–	–	–	–
